≈ marks a conversion by molar mass, not a printed value. Like-named read-outs stand apart in the source and are kept apart here. Marks after values point to notes of the source that are not given here.
How the values were obtained:
[1] = tested on: CMDR A. baumannii (FADDI-AB156); test: Antibiogram of CMDR A. baumannii (MIC); type: cell-based, Acinetobacter baumannii; settings: for Susceptibility: interpreted by CLSI resistant breakpoints
[2] = tested on: CMDR P. aeruginosa (FADDI-PA067); test: Antibiogram of CMDR P. aeruginosa; type: cell-based, Pseudomonas aeruginosa; settings: for Susceptibility: interpreted by CLSI resistant breakpoints
[3] = tested on: Pseudomonas aeruginosa (P. aeruginosa, ATCC 47085); test: MBC determination (in vitro antimicrobial experiment, CFU counting); type: cell-based; settings: Pseudomonas aeruginosa, ATCC47085; compound alone; P. aeruginosa (wild-type)
Description: (§1) Freeze-dried cultures of Escherichia coli (E. coli, ATCC 25922), Klebsiella pneumoniae (K. pneumoniae, ATCC 13883), Pseudomonas aeruginosa (P. aeruginosa, ATCC 47085), Acinetobacter baumannii (A. baumannii, ATCC 19606), colistin and multidrug-resistant (CMDR) A. baumannii (FADDI-AB156), and CMDR P. aeruginosa (FADDI-PA067) were grown aerobically and maintained by passage at ambient temperature on horse blood agar (10% v/v defibrinated horse blood, 4.4% w/v Oxoid Blood Agar Base No. 2). Overnight cultures were made from transferring a colony (ca. half a loop) from the agar plates to culture tubes containing sterilized Luria-Bertani broth (LB, 1% w/v Bacto™ Tryptone, 1% w/v NaCl, 0.5% w/v Oxoid Yeast Extract) (20 mL). Bacterial cultures were incubated overnight at 37° C. with aeration and without agitation, with the exception of the two P. aeruginosa strains (ATCC 47085 and FADDI-PA067) which were cultured at 37° C. with aeration and agitation (150 rpm). On the next day, for E. coli, K. pneumonia, P. aeruginosa (ATCC 47085), and CMDR P. aeruginosa (FADDI-PA067), small aliquots (i.e., 0.5-3 mL) were taken from the culture tubes, further diluted with LB (20 mL), and incubated for 3-4 h at 37° C. with aeration before use. All bacterial cultures were cultured without agitation, with the exception of P. aeruginosa ATCC 47085 and FADDI-PA067 which were cultured with shaking at 150 rpm. For A. baumannii, an aliquot of 0.5 mL was taken from the overnight culture tube, further diluted with LB (200 mL), and incubated overnight at 37° C. with aeration before use.
(§2) The 96-well plate was then incubated at 37° C. for 1.5 or 3 h. For each well, microbial solution was diluted with saline (0.9% NaCl solution) using an appropriate dilution factor and placed on a LB agar plate (LB broth containing 15 g/L Oxoid Blood Agar Base No. 2). For E. coli, K. pneumoniae, and A. Baumannii (ATCC 19606 and FADDI-AB156), the agar plates were incubated overnight at room temperature, and then at 37° C. with aeration for 2 h. For P. Aeruginosa (ATCC 47085 and FADDI-PA067), the agar plates were incubated at 37° C. with aeration. The number of colony-forming units (CFU) was counted and expressed as CFU/mL. Positive controls consisting of cells without any treatment were used. […] A minimum of two independent experiments (biological replicates) of the assay were conducted and three technical replicates were used in each experiment. Data is expressed as mean±standard deviation (SD) and analysed using student's t-test.

[4] = tested on: CMDR P. aeruginosa (FADDI-PA067); test: as above; type: cell-based, Pseudomonas aeruginosa; settings: Pseudomonas aeruginosa, compound alone
Description: as §1, §2

[5] = tested on: Pseudomonas aeruginosa (P. aeruginosa, ATCC 47085); test: S16-antibiotic co-administration, synergy by Bliss Independence and HSA models; type: cell-based; settings: for MBC in combination: S16 and antibiotic co-administered, each at MBC50
Description: as §2
(§3) The Bliss Independence and HSA models were used to calculate drug synergism. […] Biotechnol. 31, 160-165 (2013). With the Bliss Independence model, synergism was calculated using the formula, BICAB=A+B−AB (1), where A and B are the effects of the two drugs in isolation and BICAB is the combined effect of the two drugs as predicted by the Bliss Independence model. […] In the HSA model, if CAB is greater than the greater of A and B, CAB>max(A, B), synergy is observed. The quantitative effect of the compounds when administered alone (i.e., A and B) or in combination (i.e., CAB) was defined as the fractional reduction of the population, R=1−CFUt/CFU0, where CFUt is the CFU/mL measured after treatment, and CFU0 is the CFU/mL measured before treatment.

[6] = tested on: CMDR P. aeruginosa (FADDI-PA067); test: as above; type: cell-based, Pseudomonas aeruginosa; settings: for MBC in combination: S16 and antibiotic co-administered, each at MBC50, 3 h
Description: as §2, §3

[7] = tested on: Acinetobacter baumannii (A. baumannii, ATCC 19606); test: MBC determination (in vitro antimicrobial experiment, CFU counting); type: cell-based; settings: Acinetobacter baumannii, ATCC19606; compound alone; A. baumannii (wild-type)
Description: as §1, §2

[8] = tested on: CMDR A. baumannii (FADDI-AB156); test: as above; type: cell-based, Acinetobacter baumannii; settings: Acinetobacter baumannii, compound alone
Description: as §1, §2

[9] = tested on: Acinetobacter baumannii (A. baumannii, ATCC 19606); test: S16-antibiotic co-administration, synergy by Bliss Independence and HSA models; type: cell-based; settings: for MBC in combination: S16 and antibiotic co-administered, each at MBC50
Description: as §2, §3

[10] = tested on: CMDR A. baumannii (FADDI-AB156); test: as above; type: cell-based, Acinetobacter baumannii; settings: for MBC in combination: S16 and antibiotic co-administered, each at MBC50, 3 h
Description: as §2, §3

[11] = Acinetobacter baumannii, CMDR A. baumannii (FADDI-AB156), read-out: MIC
[12] = CMDR A. baumannii (FADDI-AB156)
[13] = co-administered S16 (at MBC50) and antibiotic, antibiotic concentration giving at least 2-log reduction in CFU/mL, 3 h
[14] = antibiotic in combination with S16, 3 h, Bliss Independence model
[15] = antibiotic in combination with S16, 3 h, Highest Single Agent model

NCC[C@H](O)C(=O)N[C@@H]1C[C@H](N)[C@@H](O[C@H]2O[C@H](CN)[C@@H](O)[C@H](O)[C@H]2O)[C@H](O)[C@H]1O[C@H]1O[C@H](CO)[C@@H](O)[C@H](N)[C@H]1O [Amikacin]
MIC [1, 11]: ≥ 109 µM
Susceptibility [1, 12]: Resistant

C[C@H]1[C@H](NC(=O)/C(=N\OC(C)(C)C(=O)O)c2csc(N)n2)C(=O)N1S(=O)(=O)O [Aztreonam]
Susceptibility [2]: Resistant

Cc1nnc(SCC2=C(C(=O)O)N3C(=O)[C@@H](NC(=O)Cn4cnnn4)[C@H]3SC2)s1 [Cefazolin]
MIC [1, 11]: ≥ 141 µM
Susceptibility [1, 12]: Resistant

CO/N=C(\C(=O)N[C@@H]1C(=O)N2C(C(=O)[O-])=C(C[N+]3(C)CCCC3)CS[C@H]12)c1csc(N)n1 [Cefepime]
MIC [1, 11]: ≥ 133 µM
Susceptibility [1, 12]: Resistant

CO[C@@]1(NC(=O)Cc2cccs2)C(=O)N2C(C(=O)O)=C(COC(N)=O)CS[C@@H]21 [Cefoxitin]
MIC [1, 11]: ≥ 150 µM
Susceptibility [1, 12]: Resistant

CC(C)(O/N=C(\C(=O)N[C@@H]1C(=O)N2C(C(=O)[O-])=C(C[n+]3ccccc3)CS[C@H]12)c1csc(N)n1)C(=O)O [Ceftazidime]
Susceptibility [2]: Resistant
MIC [1, 11]: ≥ 117 µM
Susceptibility [1, 12]: Resistant

CO/N=C(\C(=O)N[C@@H]1C(=O)N2C(C(=O)O)=C(CSc3nc(=O)c(=O)[nH]n3C)CS[C@H]12)c1csc(N)n1 [Ceftriaxone]
MIC [1, 11]: ≥ 115 µM
Susceptibility [1, 12]: Resistant

O=C(O)c1cn(C2CC2)c2cc(N3CCNCC3)c(F)cc2c1=O [Ciprofloxacin]
MIC [1, 11]: ≥ 12.1 µM

C[C@H]1c2cccc(O)c2C(=O)C2=C(O)[C@]3(O)C(=O)C(C(N)=O)=C(O)[C@@H](N(C)C)[C@@H]3[C@@H](O)[C@@H]21 [Dox, doxycycline]
MBC [3]: 50.7 µM (≈ 22.5 µg/mL)
MBC [4]: 630 µM (≈ 280 µg/mL)
MBC in combination ([5]; P. aeruginosa, 3 h): 25.3 µM
Fold reduction of MBC ([6]; MBCeff with S16 versus MBC alone): 4.2 fold
MBC in combination [6]: 295.3 µM
MBC in combination, MBCeff [6, 13]: 148.2^a μM

C[C@@H](O)[C@H]1C(=O)N2C(C(=O)O)=C(SCCN=CN)C[C@H]12 [Imi, imipenem]
MBC [7]: 37.8 µM (≈ 11.3 µg/mL)
MBC [8]: 355 µM (≈ 106 µg/mL)
MBC in combination ([9]; A. baumannii, 3 h): 19.0 µM
Fold reduction of MBC ([10]; MBCeff in combination versus MBC alone): 4.0 fold
MBC in combination [10]: 177.4 µM
MBC in combination, MBCeff [10, 13]: 88.2^a μM
MIC [1, 11]: 355 µM (≈ 106 µg/mL)

C[C@@H](O)[C@H]1C(=O)N2C(C(=O)O)=C(S[C@@H]3CN[C@H](C(=O)N(C)C)C3)[C@H](C)[C@H]12 [Meropenem]
MIC [1, 11]: ≥ 41.7 µM
Susceptibility [1, 12]: Resistant

CCn1cc(C(=O)O)c(=O)c2ccc(C)nc21 [Nalidixic Acid]
MIC ([1]; Acinetobacter baumannii): ≥ 138 µM
Susceptibility [1, 12]: Resistant

O=C1CN(/N=C/c2ccc([N+](=O)[O-])o2)C(=O)N1 [Nitrofurantoin]
MIC [1, 11]: ≥ 2150 µM

CCn1cc(C(=O)O)c(=O)c2cc(F)c(N3CCNCC3)cc21 [Norfloxacin]
MIC [1, 11]: ≥ 50.1 µM
Susceptibility [1, 12]: Resistant

CCN1CCN(C(=O)N[C@@H](C(=O)N[C@@H]2C(=O)N3[C@@H]2SC(C)(C)[C@@H]3C(=O)O)c2ccccc2)C(=O)C1=O [Piperacillin]
Susceptibility [2]: Resistant

CC1(C)S[C@@H]2[C@H](NC(=O)[C@H](C(=O)O)c3ccsc3)C(=O)N2[C@H]1C(=O)O [Ticarcillin]
Susceptibility [2]: Resistant

NC[C@H]1O[C@H](O[C@H]2[C@H](O)[C@@H](O[C@H]3O[C@H](CO)[C@@H](O)[C@H](N)[C@H]3O)[C@H](N)C[C@@H]2N)[C@H](N)C[C@@H]1O [Tob, tobramycin]
MBC [7]: 15.2 µM (≈ 7.11 µg/mL)
MBC [3]: 3.9 µM (≈ 1.82 µg/mL)
MBC [4]: 239 µM (≈ 112 µg/mL)
MBC [8]: > 2190 µM
Interaction with S16 as evaluated by the Bliss Independence and HSA models (in words) ([9]; A. baumannii wild-type, 3 h time point): non-synergistic
Antimicrobial activity on co-administration with S16 compared to compounds alone (log change in CFU/mL) ([9]; A. baumannii wild-type, all compounds at MBC50, t=3 h): antagonism
MBC in combination ([9]; A. baumannii, 3 h): 7.6 µM
Synergistic? (Yes/No) Bliss* ([9]; antibiotic in combination with S16, A. baumannii, 3 h, Bliss Independence model): No
Synergistic? (Yes/No) HAS* ([9]; antibiotic in combination with S16, A. baumannii, 3 h, Highest Single Agent model): No
Interaction with S16 as evaluated by the Bliss Independence and HSA models (in words) ([5]; P. aeruginosa wild-type, 3 h time point): non-synergistic
Antimicrobial activity on co-administration with S16 compared to compounds alone (log change in CFU/mL) ([5]; P. aeruginosa wild-type, all compounds at MBC50, t=3 h): antagonism
MBC in combination ([5]; P. aeruginosa, 3 h): 1.9 µM
Synergistic? (Yes/No) Bliss* ([5]; antibiotic in combination with S16, P. aeruginosa, 3 h, Bliss Independence model): No
Synergistic? (Yes/No) HAS* ([5]; antibiotic in combination with S16, P. aeruginosa, 3 h, Highest Single Agent model): No
Interaction with S16 as evaluated by the Bliss Independence and HSA models (in words) ([6]; 3 h time point): non-synergistic
MBC in combination [6]: 119.7 µM
Antimicrobial activity on co-administration with S16 compared to compounds alone (log change in CFU/mL) ([6]; all compounds at MBC50, t=3 h): antagonistic
Synergistic? (Yes/No) Bliss* [6, 14]: No
Synergistic? (Yes/No) HAS* [6, 15]: No
Interaction with S16 as evaluated by the Bliss Independence and HSA models (in words) ([10]; 3 h time point): non-synergistic
MBC in combination [10]: 2190.3 µM
Antimicrobial activity on co-administration with S16 compared to compounds alone (log change in CFU/mL) ([10]; all compounds at MBC50, t=3 h): antagonistic
Synergistic? (Yes/No) Bliss* [10, 14]: No
Synergistic? (Yes/No) HAS* [10, 15]: No
Susceptibility [2]: Resistant
MIC [1, 11]: > 2190 µM
Susceptibility [1, 12]: Resistant

COc1cc(Cc2cnc(N)nc2N)cc(OC)c1OC [Trimethoprim]
MIC [1, 11]: ≥ 55.1 µM
Susceptibility [1, 12]: Resistant

Colistin Sulfate
Susceptibility, concentration in parentheses [2]: > 110.8 µM
Susceptibility [2]: Resistant
Susceptibility [1, 12]: Resistant
MIC ([1]; CMDR A. baumannii (FADDI-AB156), read-out: MIC): 13.8 µM

— US11154589B2, “Antimicrobial composition combinations comprising star shaped peptide polymers” (The University of Melbourne, priority 2016, dated 2021)
